Columns and labels:
p38 MAPK = test: Phosphorylation of p38 MAPK by Western blot; type: cell-based; details: rat PMCs, D-glucose 50 mM, FIG. 8
Text: Densitometric analysis of the phosphor-p38 levels normalized with respect to the controls (C). The data is expressed as mean±SEM, n=3. * p<0.05 compared to untreated cells (control). # p<0.05, compared to cells treated with D-glucose in the presence of carrier (0).
(§1) Rat peritoneal mesothelial cells were isolated by enzymatic digestion in accordance with protocols described in Hjelle J T, Golinska B T, Waters D C, et al. Perit Dial Int 1989; 9: 341-7. Briefly, female rats weighing 200-400 g of the Spragle-Dawley strain were sacrificed pursuant to Royal Decree 1201/2005, of 10 Oct., on protection of animals used for experimental and other scientific purposes. The abdominal cavity was quickly opened and the abdominal wall (peritoneum and smooth muscle) extracted under sterile conditions. […]
In order to obtain the total protein of the cell cultures, the culture medium was collected and replaced with PBS. […] The protein content of the cell lysates was determined using the Bradford method, following the standard protocol (Vorobiov M, Malki M, Shnaider A, et al. Perit Dial Int 2008; 28: 648-54). A quantity of 20 μg of protein/well of each sample was loaded onto 10% polyacrylamide gels. […] Band intensity was quantified by grey levels using an appropriate image analysis system (Quantity One).

[1] = tested on: rat peritoneal mesothelial cells; test: Cytotoxicity study, LDH release; type: cell-based; details: rat PMCs, 72 hours, FIG. 5
Protocol: The cells were treated with carrier or aliskiren for 72 hours and cell viability was evaluated quantifying the LDH released into the culture medium. The data is expressed as mean±SEM, n=12. * p<0.05 compared to the control (carrier).
as §1
To this end, the cells were seeded on 24-well plates and exposed to the peritoneal dialysis solutions object of the present invention to study their toxicity. The toxic effects were evaluated measuring cell membrane rupture and the consequent release of LDH to the supernatant through the CytoTox96® kit (Promega). […] Absorbance of the lysate and cell supernatant was obtained using a microplate spectrophotometer at a wavelength of 490 nm, following the manufacturer's instructions.

Question: What does the source list for COCCCOc1cc(C[C@@H](C[C@H](N)[C@@H](O)C[C@H](C(=O)NCC(C)(C)C(N)=O)C(C)C)C(C)C)ccc1OC [aliskiren]?
Answer: phosphorylation of protein p38 (p38 MAPK): prevented; concentration at which toxicity with respect to mesothelial cells is shown (LDH released) [1]: ≥ 1000 µM

Source: patent US20130065964A1, “PERITONEAL DIALYSIS SOLUTION” (UNIVERSIDAD DE CASTILLA LA MANCHA, priority 2010, published 2013)
